Assay results as given in US6420391B1, “Fused thiophone derivatives and drugs containing the same as the active ingredient” (Ono Pharmaceutical Co., Ltd., priority 1998, dated 2002).
Counter-ions that a name gives are not always drawn.

How the values were obtained:
Assay type in all cases: cell-based
[1] = system: IL-6 production in A549 cells (human lung epithelial cell line); experiment: Inhibitory activity on IL-6 production (TNF-α-stimulated A549 cells, ELISA); details: TNF-α stimulation, incubation for 24 hours, IL-6 in supernatant by ELISA
Experimental: (§1) (1) Assaying Inhibitory Activity on IL-6 Production and Cellular Toxicity
(§2) 1.5×10^4 of A549 cells (human lung epithelial cell line) were suspended in dalbeco-modified eagle medium (DMEM) containing 0.5% fetus bovine serum (abbreviated as FBS)˜(100 μl) and incubated in 96 well-microplate over day and night. The test compound dissolved in various kinds of solvents at various concentrations (20 μl) and Tumor Necrosis Factor-α (TNF-α (Genzyme Co, Cat. No. TNF-H)) dissolved in DMEM at the concentration of 12.5 ng/ml (80 μl) were added thereto. After incubation for 24 hours, the supernatant (200 μl) was recovered to assay the quantity of IL-6 using Enzyme Linked Immuno […] Assay (ELISA) Method (R&D Systems Co., Cat. No. D6050), to calculate inhibitory activity of the test compound and determine 50% inhibitory concentration (IC50). To the cells from which the supernatant was removed, a solution of brom 3-(4,5-dimethyl-2-thiazolyl)-2,5-diphenyl-2H-tetrazolinium (abbreviated as MTT (Dojin Chemical Laboratory, Cat. No. 345-01821)) dissolved in DMEM containing 10% FBS at the concentration of 0.5 mg/ml (100 μl) was added and incubated for 3 hours. After removing MTT solution, methanol (100 μl) was added thereto. After lyse the cells, the intensity of absorbance on 570 nm as a control of 690 nm was determined to assay cellular toxicity of the test compound.

[2] = system: A549 cells (human lung epithelial cell line); experiment: Cellular toxicity in A549 cells (MTT); details: at 10 μM
Experimental: as §1, §2

[3] = system: peripheral monocyte prepared from healthy human blood; experiment: Cellular toxicity in peripheral monocyte (MTT); details: at 1 μM
Experimental: (§3) (2) Assaying Inhibitory Activity on IL-12 Production and Cellular Toxicity
(§4) 2.0×10^5 of peripheral monocyte prepared from healthy human blood by Ficole gravity centrifugation method (Pharmacia Biotech Co, Cat. No. 17-1440-02) were suspended in RPMI1640 medium containing 10% FBS (170 μl). The test compound dissolved in various kinds of solvents at the various concentrations (10 μl) and 6000 units/ml of Interferon-γ (IFN-γ (Serotec Co, Cat. No. PHP050)) (10 μl) dissolved in RPMI1640 medium containing 10% FBS. After incubation for 24 hours in 96 well-microplate, lipopolysaccharide (6 μg/ml) dissolved in RPMI1640 medium containing 10% FBS (LPS (Difco Co., Cat. No. 3120-25-0)) (10 μl) was added thereto. After incubation for 20 hours, the supernatant (150 μl) was recovered to assay the quantity of IL-12 using ELISA Method (R&D Systems Co, Cat. No. D1200), calculate for inhibitory activity of the test compound and determine 50% inhibitory concentration (IC50) (see J. Exp. Med., 183, 147 (1996)). To the cells from which the supernatant (150 μl) was removed, a solution of MTT dissolved in RPMI1640 medium containing 10% FBS at 1 mg/ml (50 μl) was added and incubated for 3 hours. 2-Propanol containing 0.04N HCl (100 μl) was added thereto. After lyse the cells, the intensity of absorbance on 570 nm as a control of 690 nm was determined to assay cellular toxicity of the test compound.

[4] = system: IL-12 production in peripheral monocyte prepared from healthy human blood; experiment: Inhibitory activity on IL-12 production (IFN-γ/LPS-stimulated peripheral monocyte, ELISA); details: IFN-γ 24 hours then LPS 20 hours, IL-12 in supernatant by ELISA
Experimental: as §3, §4

| IC50 [1] | SMILES | cellular toxicity [2] | cellular toxicity [3] | IC50 [4] |
| --- | --- | --- | --- | --- |
| 4400 nM | O=S1(=O)CC(S(=O)(=O)c2ccccc2)c2c(OCc3cccnc3)cccc21 (stereo not shown) [Example 20(4) free compound, 4-(Pyridin-3-ylmethyl) oxy-3-phenylsulfonyl-2,3-dihydro-1,1-dioxidebenzo[b]thiophene] | no cellular toxicity | – | – |
| – | O=S1(=O)CC(S(=O)(=O)c2ccccc2)c2c(OCc3cccnc3)cccc21 (stereo not shown) [Example 20(4) hydrochloride, 4-(Pyridin-3-ylmethyl) oxy-3-phenylsulfonyl-2,3-dihydro-1,1-dioxidebenzo[b]thiophene] | – | no cellular toxicity | 110 nM |
